# Test results from US20230146795A1, “ENHANCEMENT OF ANTI-TUMOR ACTIVITY OF SHP2 INHIBITOR PYRIMIDINONE IN COMBINATION WITH NOVEL CANCER MEDICINES IN CANCERS” (TAIHO PHARMACEUTICAL CO., LTD., priority 2020, published 2023).
# Several values for one entry are separate records, joined by “and”; a condition that tells them apart may be missing. Identical values can stand only once. Like-named read-outs stand apart in the source and are kept apart here.
# Legend:
# Type in all cases: cell-based
# [1] = test system: MKN45; assay: Anti-proliferation assay (CellTiter-Glo 2.0), combination index, MKN45; conditions: for Description: combination effect
# Method: (§1) Cell lines were obtained from ATCC or Health Science Research Resources Bank.
# (§2) Each cell lines were collected by ordinary method, then suspended in indicated medium containing 10% fetal bovine serum in table 3. The number of cells seeded per well was set to 500 cells/20 μL. […] The concentration of each anti-cancer reagents set to 8 concentrations including 0 nM. After adding the medicine to the cells, the cells were further incubated at 37° C. for 3 days under 5% CO2. Cell survival rates were calculated by adding 20 μL of CellTiter-Glo(registered trademark) 2. 0 (Promega) solution to each well, incubating the cells at room temperature for 10 minutes, and then measuring the chemiluminescence intensity of each well using a plate reader (ARVO).
# (§3) A combination index (CI) value at each combined concentration of the medicines was determined.
# [2] = test system: RT4; assay: Anti-proliferation assay (CellTiter-Glo 2.0), combination index, RT4; conditions: for Description: combination effect
# Method: as §1, §2, §3
# [3] = test system: NCI-H358; assay: Anti-proliferation assay (CellTiter-Glo 2.0), combination index, NCI-H358
# Method: as §1, §2, §3
# [4] = Compound 1 41.2 nmol/L + 5-FU 3330 nmol/L, molar ratio 1:81
# [5] = Compound 1 123 nmol/L + 5-FU 10000 nmol/L, molar ratio 1:81
# [6] = Compound 1 1.52 nmol/L + Vorinostat 41.2 nmol/L, molar ratio 1:27
# [7] = Compound 1 4.57 nmol/L + Vorinostat 123 nmol/L, molar ratio 1:27
# [8] = Compound 1 13.7 nmol/L + Vorinostat 370 nmol/L, molar ratio 1:27
# [9] = Compound 1 41.2 nmol/L + Vorinostat 1110 nmol/L, molar ratio 1:27
# [10] = Compound 1 123 nmol/L + Vorinostat 3330 nmol/L, molar ratio 1:27
# [11] = Compound 1 370 nmol/L + Vorinostat 10000 nmol/L, molar ratio 1:27
# [12] = Compound 1 1110 nmol/L + Vorinostat 3330 nmol/L, molar ratio 1:3
# [13] = Compound 1 3330 nmol/L + Vorinostat 10000 nmol/L, molar ratio 1:3
# [14] = Compound 1 13.7 + combination drug 111 nmol/L (1:8.1)
# [15] = Compound 1 41.2 + combination drug 333 nmol/L (1:8.1)
# [16] = Compound 1 123 + combination drug 1000 nmol/L (1:8.1)
# [17] = Compound 1:combination drug molar ratio 1:8.1
# [18] = Compound 1 12.3 nmol/L + Gemcitabine 1.23 nmol/L, molar ratio 1:0.1
# [19] = Compound 1 37.0 nmol/L + Gemcitabine 3.70 nmol/L, molar ratio 1:0.1
# [20] = Compound 1 123 + combination drug 556 nmol/L (1:4.5)
# [21] = Compound 1 370 + combination drug 1670 nmol/L (1:4.5)
# [22] = Compound 1 1110 + combination drug 5000 nmol/L (1:4.5)
# [23] = Compound 1 123 + combination drug 3330 nmol/L (1:27)
# [24] = Compound 1 370 + combination drug 10000 nmol/L (1:27)
# [25] = Compound 1 4.57 + combination drug 37.0 nmol/L (1:8.1)
# [26] = Compound 1 1.52 + combination drug 1.37 nmol/L (1:0.9)
# [27] = Compound 1 4.57 + combination drug 4.12 nmol/L (1:0.9)
# [28] = Compound 1 13.7 + combination drug 12.3 nmol/L (1:0.9)
# [29] = Compound 1 41.2 + combination drug 37.0 nmol/L (1:0.9)
# [30] = Compound 1 123 + combination drug 111 nmol/L (1:0.9)
# [31] = Compound 1 370 + combination drug 333 nmol/L (1:0.9)
# [32] = Compound 1 1110 + combination drug 1000 nmol/L (1:0.9)
# [33] = Compound 1 13.7 + combination drug 123 nmol/L (1:9)
# [34] = Compound 1 41.2 + combination drug 370 nmol/L (1:9)
# [35] = Compound 1 123 + combination drug 1110 nmol/L (1:9)
# [36] = Compound 1 370 + combination drug 3330 nmol/L (1:9)
# [37] = Compound 1 1110 + combination drug 10000 nmol/L (1:9)
# [38] = Compound 1 4.57 nmol/L + Etoposide 123 nmol/L, molar ratio 1:27
# [39] = Compound 1 13.7 nmol/L + Etoposide 370 nmol/L, molar ratio 1:27
# [40] = Compound 1 41.2 nmol/L + Etoposide 1110 nmol/L, molar ratio 1:27
# [41] = Compound 1 13.7 + combination drug 1.37 nmol/L (1:0.1)
# [42] = Compound 1 41.2 + combination drug 4.12 nmol/L (1:0.1)
# [43] = Compound 1 123 + combination drug 12.3 nmol/L (1:0.1)
# [44] = Compound 1 41.2 + combination drug 3330 nmol/L (1:81)
# [45] = Compound 1 123 + combination drug 10000 nmol/L (1:81)
# [46] = Compound 1 37.0 + combination drug 4.12 nmol/L (1:0.1)
# [47] = Compound 1 111 + combination drug 12.3 nmol/L (1:0.1)
# [48] = Compound 1 333 + combination drug 37.0 nmol/L (1:0.1)
smiles,measurement,setting,value
O=c1[nH]cc(F)c(=O)[nH]1 [Compound 5-FU],CI,[1]; [4],0.738
same,Fa,[1]; [4],0.4610
same,CI,[1]; [5],0.399
same,Fa,[1]; [5],0.7197
same,Description,"[1]; Compound 1 + 5-FU, molar ratio 1:81",Synergy (0.3-0.7)
O=C(CCCCCCC(=O)Nc1ccccc1)NO [Vorinostat],CI,[2]; [6],0.581
same,Fa,[2]; [6],0.0392
same,CI,[2]; [7],0.388
same,Fa,[2]; [7],0.1081
same,CI,[2]; [8],0.647
same,Fa,[2]; [8],0.1594
same,CI,[2]; [9],0.394
same,Fa,[2]; [9],0.4179
same,CI,[2]; [10],0.569
same,Fa,[2]; [10],0.5893
same,CI,[2]; [11],0.334
same,Fa,[2]; [11],0.8967
same,Description,"[2]; Compound 1 + Vorinostat, molar ratio 1:27",Synergy (0.3-0.7)
same,CI,[3]; [12],0.642
same,Fa,[3]; [12],0.7678
same,CI,[3]; [13],0.464
same,Fa,[3]; [13],0.9628
same,Description,"[3]; combination effect, Compound 1 + Vorinostat, molar ratio 1:3",Synergy (0.3-0.7)
COc1cc2ncnc(Nc3ccc(F)c(Cl)c3)c2cc1OCCCN1CCOCC1 [Gefitinib],CI,[2]; [14],0.205
same,CI,[2]; [15],0.352
same,CI,[2]; [16],0.445
same,CI,[3]; [14],0.311
same,CI,[3]; [15],0.370
same,CI,[3]; [16],0.724
same,Description (combinatory effect by CI),[3]; [17],Synergy (0.3-0.7)
Nc1ccn([C@@H]2O[C@H](CO)[C@@H](O)C2(F)F)c(=O)n1 [Gemcitabine],CI,[1]; [18],0.698
same,Fa,[1]; [18],0.2152
same,CI,[1]; [19],0.878
same,Fa,[1]; [19],0.4083
same,Description,"[1]; Compound 1 + Gemcitabine, molar ratio 1:0.1",Synergy (0.3-0.7)
CCOc1cc2ncc(C#N)c(Nc3ccc(OCc4ccccn4)c(Cl)c3)c2cc1NC(=O)/C=C/CN(C)C [Neratinib],CI,[1]; [20],0.658
same,Fa,[1]; [20],0.5592
same,CI,[1]; [21],0.336
same,Fa,[1]; [21],0.8104
same,CI,[1]; [22],0.237
same,Fa,[1]; [22],0.9240
CS(=O)(=O)CCNCc1ccc(-c2ccc3ncnc(Nc4ccc(OCc5cccc(F)c5)c(Cl)c4)c3c2)o1 [Lapatinib],CI,[1]; [23],0.965
same,Fa,[1]; [23],0.6048
same,CI,[1]; [24],0.497
same,Fa,[1]; [24],0.9171
same,Description (combinatory effect by CI),[1]; Compound 1:combination drug molar ratio 1:27,Synergy (0.3-0.7)
C=CC(=O)Nc1cc(Nc2nccc(-c3cn(C)c4ccccc34)n2)c(OC)cc1N(C)CCN(C)C [Osimertinib],CI,[2]; [25],0.844
same,Fa,[2]; [25],0.2395
same,CI,[2]; [14],0.453
same,Fa,[2]; [14],0.4891
same,CI,[2]; [15],0.326
same,Fa,[2]; [15],0.7067
same,CI,[2]; [16],0.550
same,Fa,[2]; [16],0.7777
same,Description (combinatory effect by CI),[2]; [17],Synergy (0.3-0.7)
same,CI,[3]; [14],0.333
same,Fa,[3]; [14],0.2157
same,CI,[3]; [15],0.436
same,Fa,[3]; [15],0.4242
same,CI,[3]; [16],0.844
same,Fa,[3]; [16],0.5579
same,Description (combinatory effect by CI),[3]; [17],Synergy (0.3-0.7)
Cc1nc(Nc2ncc(C(=O)Nc3c(C)cccc3Cl)s2)cc(N2CCN(CCO)CC2)n1 [Dasatinib],CI,[2]; [26],0.804
same,Fa,[2]; [26],0.1983
same,CI,[2]; [27],0.356
same,Fa,[2]; [27],0.3708
same,CI,[2]; [28],0.147
same,Fa,[2]; [28],0.5917
same,CI,[2]; [29],0.207
same,Fa,[2]; [29],0.6714
same,CI,[2]; [30],0.096
same,Fa,[2]; [30],0.8271
same,CI,[2]; [31],0.192
same,Fa,[2]; [31],0.8517
same,CI,[2]; [32],0.229
same,Fa,[2]; [32],0.8974
same,CI,[3]; [28],0.342
same,Fa,[3]; [28],0.2486
same,CI,[3]; [29],0.208
same,Fa,[3]; [29],0.4351
same,CI,[3]; [30],0.119
same,Fa,[3]; [30],0.7042
same,CI,[3]; [31],0.227
same,Fa,[3]; [31],0.7700
same,CI,[3]; [32],0.633
same,Fa,[3]; [32],0.7795
CNC(=O)c1cc(Oc2ccc(NC(=O)Nc3ccc(Cl)c(C(F)(F)F)c3)c(F)c2)ccn1 [Regorafenib],CI,[2]; [33],0.650
same,Fa,[2]; [33],0.1849
same,CI,[2]; [34],0.582
same,Fa,[2]; [34],0.3071
same,CI,[2]; [35],0.359
same,Fa,[2]; [35],0.5417
same,CI,[2]; [36],0.696
same,Fa,[2]; [36],0.6157
same,CI,[2]; [37],0.979
same,Fa,[2]; [37],0.7401
same,Description (combinatory effect by CI),[2]; Compound 1:combination drug molar ratio 1:9,Synergy (0.3-0.7)
COc1cc([C@@H]2c3cc4c(cc3[C@@H](O[C@@H]3O[C@@H]5CO[C@@H](C)O[C@H]5[C@H](O)[C@H]3O)[C@H]3COC(=O)[C@H]23)OCO4)cc(OC)c1O [Etoposide],CI,[2]; [38],0.460
same,Fa,[2]; [38],0.0637
same,CI,[2]; [39],0.373
same,Fa,[2]; [39],0.2820
same,CI,[2]; [40],0.432
same,Fa,[2]; [40],0.5945
same,Description,"[2]; Compound 1 + Etoposide, molar ratio 1:27",Synergy (0.3-0.7)
Cc1ccc(C(=O)Nc2ccc(CN3CCN(C)CC3)c(C(F)(F)F)c2)cc1C#Cc1cnc2cccnn12 [Ponatinib],CI,[3],0.794 and 0.463 and 0.639
COc1cc(OC)cc(N(CCNC(C)C)c2ccc3ncc(-c4cnn(C)c4)nc3c2)c1 [Erdafitinib],CI,[2]; [41],0.602
same,Fa,[2]; [41],0.3659
same,CI,[2]; [42],0.124
same,Fa,[2]; [42],0.6028
same,CI,[2]; [43],0.129
same,Fa,[2]; [43],0.6985
same,CI,[3]; [44],0.768
same,Fa,[3]; [44],0.3851
same,CI,[3]; [45],0.681
same,Fa,[3]; [45],0.7532
same,Description (combinatory effect by CI),[3]; Compound 1:combination drug molar ratio 1:81,Synergy (0.3-0.7)
CC(=O)Nc1cccc(-n2c(=O)n(C3CC3)c(=O)c3c(Nc4ccc(I)cc4F)n(C)c(=O)c(C)c32)c1 [Trametinib],CI,[1]; [46],0.358
same,Fa,[1]; [46],0.4047
same,CI,[1]; [47],0.389
same,Fa,[1]; [47],0.6614
same,CI,[1]; [48],0.693
same,Fa,[1]; [48],0.7703
same,Description (combinatory effect by CI),[1]; Compound 1:combination drug molar ratio 1:0.1,Synergy (0.3-0.7)
